The test system of the assay is PMA-stimulated THP-1 cells. Kind of assay: Phagocytosis of opsonized zymosan bioparticles in PMA-stimulated THP-1 cells (fluorescence). Type of assay: cell-based, human. To be noted: oils diluted 1/10^3; Mar-1 at 1 nM; 15 min pretreatment, 60 min incubation with zymosan. How it is done:
To determine the capacity of promoting a macrophage pro-resolution phenotype (i.e. M2) and therefore to foster the resolution of inflammation, several oils were tested in a human macrophage model adapted by López Vicario C from a method previously described (Titos et al., 2011) and compared with Mar-1 (the term Maresins is coined from Macrophage mediator in resolving inflammation), an established active compound in resolution of the inflammation.
THP-1 cells were cultured in a 96-well black plate at a density of 3.5×10^4 cells/well in 200 μl RPMI 1640 medium (10% FBS). […]
The compounds tested in this macrophage model were: • Maresin 1 (from Cayman Chemicals) • LM03-1 (a total amount of Omega-3 of about 629.9 mg/g (as FFA), DHA in an amount of about 342.1 mg/g (as FFA), EPA in an amount of about 187.6 mg/g (as FFA), 17-HDHA in an amount of about 60.8 mg/kg and 18-HEPE in an amount of about 87.5 mg/kg with 1.4 mg/g of a mixed natural tocopherols—3624 EE (about 33.0% EPA ethyl ester and about 22% DHA in ethyl ester form expressed as FFA) • Omacor (about 42.5% EPA ethyl ester and about 34.5% DHA in ethyl ester form expressed as FFA)
The concentration of Mar-1 used in the experiment was 1 nM, which has been determined the concentration with maximum activity in phagocytic activation for this compound in previous experiments using this model (data not shown). […]

Molecules are shown by their SMILES.

Regarding `CC/C=C\C/C=C\C[C@H](O)/C=C/C=C/C=C/[C@H](O)C/C=C\CCC(=O)O` [Maresin-1, 7R,14S-dihydroxy-4Z,8E,10E,12E,16Z,19Z-docosahexaenoic acid], the “phagocytic activity relative to Mar-1 (100% assigned to Mar-1 1 nM)” value is recorded as 100%.

The values above are taken from patent publication US11833158B2, “Compositions comprising omega-3 fatty acids, 17-HDHA and 18-HEPE and methods of using same” (Solutex NA LLC, priority 2015, dated 2023).
